Measurements reported in US11472814B2, “Thienopyranones and furanopyranones as checkpoint inhibitors and modulators of anti-tumor immunity” (SignalRx Pharmaceuticals, Inc., priority 2017, dated 2022).

Assays:
SYK = target: T1, SYK (Homo sapiens, UniProt P43405); assay: SYK inhibition IC50 (Reaction Biology Corp.); assay type: biochemical; conditions: 10-point curve; read-out: SYK IC50
T1 construct: purchased Reaction Biology Corp., Malvern, Pa; (contract assay service)
From the text: (§1) The inhibitory activity of a compound of the invention against PI3K and/or BRD4 and/or SYK and/or CDK4/6 can be readily determined using methods known to the skilled artisan, or by commercial vendors offering such services. […] In vivo, PI3K inhibition can be determined from target tissue biopsies by standard tissue processing to disrupt cells and then performing Western Blot analysis to determine the presence or absence of pAKT (substrate of PI3K) relative to a control sample. The activity of a compound of the invention as an inhibitor of a bromodomain-containing protein, such as a BET protein, such as BRD2, BRD3, BRD4, and/or BRDT, or an isoform or mutant thereof, may be determined in vitro, in vivo, or in a cell line. In vitro assays include assays that determine inhibition of bromodomain-containing proteins. Alternatively, inhibitor binding may be determined by running a competition experiment where a provided compound is incubated with a bromodomain-containing protein, such as a BET protein bound to known ligands, labeled or unlabeled. For example, bromodomain inhibition can be determined in vitro using Alpha Screen Technology (http://www.reactionbiologv.com/webapps/site/NewsPDFs/Bromodomain%20Assay %20Platform %20for %20Drug %20Screening %20and %20Discovery.pdf). In vivo bromodomain inhibition can be determined indirectly by evaluating the amount of protein present of proteins whose genes' transcription is influenced or controlled by the bromodomain protein, for example, the MYCN protein transcription is controlled by BRD4 (J. E. Delmore et al., Cell 2011, 146, 904-917; A. Puissant, Cancer Discov. 2013, 3, 308-323). Bromodomain inhibition may also be predicted by in silico modeling as described below in the Examples. Additionally, the company Promega offers a SYK luminescent assay to determine a compound's ability to inhibit the SYK protein (https://www.promega.com/-/media/files/resources/protocols/kinase-enzyme-appnotes/syk-kinase-assay-protocol.pdf?la=en).
Compounds of the invention were characterized for their ability to inhibit target proteins using third party vendors offering such services. PI3K alpha, gamma, and delta inhibition activity was determined by Thermo Fisher Scientific-Biosciences Life Sciences Solutions, Madison, Wis. The bromodomain protein inhibition (binding domain 1 and 2 of BRD4) as well as SYK inhibition was determined at Reaction Biology Corp., Malvern, Pa. Additional information on each of the assays performed and services provided is available at each company's website on the internet (https://www.thermofisher.com/us/en/home/life-science.html and http://www.reactionbiology.com/webapps/site, respectively). The IC50 data (shown below in Table 5) was calculated from a 10-point curve and is expressed in nanomolar concentration (nM) rounded off to the nearest whole number. Where multiple values were obtained the range from lowest to highest values is presented. NI=no inhibition detected up to 50 uM or IC50 not reached at 50 uM.

BRD4-1 = target: T2, BRD4-1 (Homo sapiens, UniProt O60885); assay: Bromodomain protein inhibition IC50, binding domain 1 of BRD4 (Reaction Biology Corp.); conditions: 10-point curve
T2 construct: purchased Reaction Biology Corp., Malvern, Pa; (contract assay service)
From the text: as §1
(§2) Compounds of the invention were characterized for their ability to inhibit target proteins using third party vendors offering such services. PI3K alpha, gamma, and delta inhibition activity was determined by Thermo Fisher Scientific-Biosciences Life Sciences Solutions, Madison, Wis. The bromodomain protein inhibition (binding domain 1 and 2 of BRD4) as well as SYK inhibition was determined at Reaction Biology Corp., Malvern, Pa. […] The IC50 data (shown below in Table 5) was calculated from a 10-point curve and is expressed in nanomolar concentration (nM) rounded off to the nearest whole number. […]

BRD4-2 = target: T3, BRD4-2 (Homo sapiens, UniProt O60885); assay: Bromodomain protein inhibition IC50, binding domain 2 of BRD4 (Reaction Biology Corp.); conditions: 10-point curve
T3 construct: purchased Reaction Biology Corp., Malvern, Pa; (contract assay service)
From the text: as §1, §2

PI3K α = target: T4, PI3K α (Homo sapiens, UniProt P42336); assay: PI3K alpha inhibition IC50 (Thermo Fisher); assay type: biochemical; conditions: 10-point curve
T4 construct: purchased Thermo Fisher Scientific-Biosciences Life Sciences Solutions, Madison, Wis; (contract assay service)
T4 sequence (P42336 whole entry): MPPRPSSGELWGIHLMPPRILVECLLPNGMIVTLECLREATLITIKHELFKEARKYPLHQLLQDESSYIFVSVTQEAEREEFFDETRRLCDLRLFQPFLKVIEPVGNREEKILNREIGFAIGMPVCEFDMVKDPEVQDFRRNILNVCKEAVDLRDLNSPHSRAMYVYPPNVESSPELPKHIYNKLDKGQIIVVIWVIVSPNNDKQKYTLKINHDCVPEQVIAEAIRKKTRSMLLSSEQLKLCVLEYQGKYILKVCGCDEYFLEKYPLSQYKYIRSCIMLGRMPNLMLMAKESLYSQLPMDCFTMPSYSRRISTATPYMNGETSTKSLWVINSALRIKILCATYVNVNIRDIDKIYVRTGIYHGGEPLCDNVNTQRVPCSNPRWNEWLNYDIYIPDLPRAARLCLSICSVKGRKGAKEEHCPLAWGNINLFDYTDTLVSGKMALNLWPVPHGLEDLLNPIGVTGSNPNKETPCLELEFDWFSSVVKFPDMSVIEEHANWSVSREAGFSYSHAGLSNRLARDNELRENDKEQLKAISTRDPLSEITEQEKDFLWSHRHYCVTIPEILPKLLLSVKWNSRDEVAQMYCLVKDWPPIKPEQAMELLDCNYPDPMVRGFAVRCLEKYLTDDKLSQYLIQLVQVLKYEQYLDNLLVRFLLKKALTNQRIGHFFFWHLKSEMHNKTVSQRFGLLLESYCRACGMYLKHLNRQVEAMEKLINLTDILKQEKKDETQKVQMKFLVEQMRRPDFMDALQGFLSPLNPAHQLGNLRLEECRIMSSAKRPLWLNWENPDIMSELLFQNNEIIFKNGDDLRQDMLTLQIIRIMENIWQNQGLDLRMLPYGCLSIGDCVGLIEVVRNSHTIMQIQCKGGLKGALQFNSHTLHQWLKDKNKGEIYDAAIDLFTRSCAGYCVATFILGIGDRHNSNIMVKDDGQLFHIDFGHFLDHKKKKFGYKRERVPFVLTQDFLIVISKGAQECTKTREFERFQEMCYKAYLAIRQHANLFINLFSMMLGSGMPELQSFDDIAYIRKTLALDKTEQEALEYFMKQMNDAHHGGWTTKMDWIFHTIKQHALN
T4 sequence (P27986 whole entry partner): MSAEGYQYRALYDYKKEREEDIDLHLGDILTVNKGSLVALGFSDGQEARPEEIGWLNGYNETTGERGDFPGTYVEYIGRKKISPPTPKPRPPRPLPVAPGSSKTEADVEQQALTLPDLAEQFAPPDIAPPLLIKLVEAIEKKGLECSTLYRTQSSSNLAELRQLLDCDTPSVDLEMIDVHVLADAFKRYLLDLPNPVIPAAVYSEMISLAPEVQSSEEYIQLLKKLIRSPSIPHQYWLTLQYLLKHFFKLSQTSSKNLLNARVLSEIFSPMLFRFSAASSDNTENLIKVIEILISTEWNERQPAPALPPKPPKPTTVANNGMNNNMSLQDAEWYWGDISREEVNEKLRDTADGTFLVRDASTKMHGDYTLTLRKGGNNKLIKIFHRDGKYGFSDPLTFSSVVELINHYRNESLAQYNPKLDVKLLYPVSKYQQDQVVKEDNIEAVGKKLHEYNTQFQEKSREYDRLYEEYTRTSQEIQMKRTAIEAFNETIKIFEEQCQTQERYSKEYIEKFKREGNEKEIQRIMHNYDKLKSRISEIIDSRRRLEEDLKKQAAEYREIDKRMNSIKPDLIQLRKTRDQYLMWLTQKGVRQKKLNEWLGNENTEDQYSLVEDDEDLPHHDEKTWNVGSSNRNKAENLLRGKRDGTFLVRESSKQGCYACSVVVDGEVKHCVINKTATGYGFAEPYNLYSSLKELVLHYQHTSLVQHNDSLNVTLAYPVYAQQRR
From the text: as §1, §2

PI3K γ = target: T5, PI3K γ (Homo sapiens, UniProt P48736); assay: PI3K gamma inhibition IC50 (Thermo Fisher); assay type: biochemical; conditions: 10-point curve
T5 construct: purchased Thermo Fisher Scientific-Biosciences Life Sciences Solutions, Madison, Wis; (contract assay service)
T5 sequence (P48736 whole entry): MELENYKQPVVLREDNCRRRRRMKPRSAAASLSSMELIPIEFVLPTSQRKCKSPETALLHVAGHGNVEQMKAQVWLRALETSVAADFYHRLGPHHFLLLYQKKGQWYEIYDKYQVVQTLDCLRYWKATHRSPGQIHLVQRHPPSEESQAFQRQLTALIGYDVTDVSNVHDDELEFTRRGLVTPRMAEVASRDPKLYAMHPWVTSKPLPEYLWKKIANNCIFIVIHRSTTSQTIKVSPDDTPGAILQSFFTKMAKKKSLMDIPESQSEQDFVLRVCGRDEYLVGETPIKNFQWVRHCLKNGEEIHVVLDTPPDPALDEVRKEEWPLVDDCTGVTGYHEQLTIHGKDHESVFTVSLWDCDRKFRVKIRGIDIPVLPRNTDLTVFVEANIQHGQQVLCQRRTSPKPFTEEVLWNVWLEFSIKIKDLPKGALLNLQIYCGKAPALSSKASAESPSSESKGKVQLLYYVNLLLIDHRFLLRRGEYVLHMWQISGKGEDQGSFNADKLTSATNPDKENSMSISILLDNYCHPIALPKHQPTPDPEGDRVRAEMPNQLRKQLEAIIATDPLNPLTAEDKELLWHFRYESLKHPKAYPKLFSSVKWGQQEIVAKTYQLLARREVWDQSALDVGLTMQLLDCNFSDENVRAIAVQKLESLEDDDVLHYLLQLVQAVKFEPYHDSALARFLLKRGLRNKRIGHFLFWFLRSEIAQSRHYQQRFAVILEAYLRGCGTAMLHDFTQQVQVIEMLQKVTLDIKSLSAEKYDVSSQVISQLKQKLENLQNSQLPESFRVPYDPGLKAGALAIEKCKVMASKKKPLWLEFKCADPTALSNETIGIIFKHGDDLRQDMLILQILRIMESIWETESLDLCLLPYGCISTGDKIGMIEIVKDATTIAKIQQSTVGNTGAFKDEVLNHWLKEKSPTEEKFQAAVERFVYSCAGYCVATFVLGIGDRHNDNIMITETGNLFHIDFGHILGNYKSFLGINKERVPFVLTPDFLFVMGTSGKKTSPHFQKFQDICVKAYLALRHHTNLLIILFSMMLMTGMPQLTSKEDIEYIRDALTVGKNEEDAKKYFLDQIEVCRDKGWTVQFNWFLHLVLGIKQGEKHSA
From the text: as §1, §2

[1] = test system: Bone marrow derived macrophages (BMDMs), M2 gene expression; assay: M2 marker mRNA in IL4 stimulated bone marrow derived macrophages (RT PCR); assay type: cell-based, murine; conditions: for Arg mRNA expression relative to control / Fizz1 mRNA expression relative to control / Mmr mRNA expression relative to control / Ym1 mRNA expression relative to control / Mgl mRNA expression relative to control: IL4 stimulated BMDMs, 24 hours, normalized to GAPDH, control = 1
Description: (§3) Bone marrow derived macrophages (MOs) (BMDMs) were exposed to IL4 or LPS for 24 hours to stimulate the M2 or M1 macrophage transition in presence of Compound 1 and the known SYK inhibitor Bay-61-3606 at 1 μM conc. M2 markers Mmr, Ym1, Fizz1 and Mgl mRNA and M1 markers I11, 116 and Tnfa mRNA was quantitated by RT PCR. Values are mean±SEM (n=3-4). Expression of gene of interest is normalized to GAPDH. […] The data provide direct evidence that Compound 1 can block the immunosuppressive macrophage M2 gene expression and activate the M1 gene expression and therefore activate antitumor innate immune cell differentiation in vitro.
(§4) Relative mRNA expression of IL4 or LPS polarized genes in murine bone marrow derived macrophages (BMDMs) treated with various concentrations of inhibitors in vitro. Conclusion: Compound 3 suppressed in vitro macrophage specific immunosuppressive M2 gene expression markers and augmented macrophage stimulatory immune response M1 genes respectively.

[2] = test system: Bone marrow derived macrophages (BMDMs), M1 gene expression; assay: M1 marker mRNA in LPS stimulated bone marrow derived macrophages (RT PCR); assay type: cell-based, murine; conditions: for Il1 mRNA expression relative to control / Il6 mRNA expression relative to control / Tnfa mRNA expression relative to control: LPS stimulated BMDMs, 24 hours, normalized to GAPDH, control = 1
From the text: as §3, with “Bone marrow derived macrophages (MOs) (BMDMs) were exposed to IL4 or LPS for 24 hours to stimulate the M2 or M1 macrophage transition in presence of Compound 1 and the known SYK inhibitor Bay-61-3606 at 1 μM conc.” left out
as §4

[3] = test system: Bone marrow derived macrophages (BMDMs), M2 gene expression; assay: M2 marker mRNA in IL4 stimulated bone marrow derived macrophages (RT PCR); assay type: cell-based, murine; conditions: 24 hours, normalized to GAPDH, control = 1

Cc1nn(-c2ccnc(Nc3ccc(-c4csc5c(=O)cc(N6CCOCC6)oc45)cc3)n2)cc1CN1CC(O)C1 [Compound 1, 3-[p-(4-{4-[(3-Hydroxy-1-azetidinyl)methyl]-3-methyl-1H-pyrazol-1-yl}-2-pyrimidinylamino)phenyl]-5-morpholino-4-oxa-1-thia-7-indenone]
IC50 (SYK): < 0.1 µM
IC50 (BRD4-1): > 50 µM
IC50 (BRD4-2): > 50 µM
IC50 (PI3K α): 0.1 to 1 µM
IC50 (PI3K γ): 5 to 50 µM
Arg mRNA expression relative to control ([1]; 200 nM): 0.5
Fizz1 mRNA expression relative to control ([1]; 200 nM): 0.44
Mmr mRNA expression relative to control ([1]; 200 nM): 0.41
Ym1 mRNA expression relative to control ([1]; 200 nM): 0.37
Arg mRNA expression relative to control ([1]; 500 nM): 0.45
Fizz1 mRNA expression relative to control ([1]; 500 nM): 0.31
Mgl mRNA expression relative to control ([1]; 500 nM): 0.41
Mmr mRNA expression relative to control ([1]; 500 nM): 0.18
Ym1 mRNA expression relative to control ([1]; 500 nM): 0.21
Arg mRNA expression relative to control ([1]; 1 μM): 0.39
Fizz1 mRNA expression relative to control ([1]; 1 μM): 0.11
Mgl mRNA expression relative to control ([1]; 1 μM): 0.30
Mmr mRNA expression relative to control ([1]; 1 μM): 0.19
Ym1 mRNA expression relative to control ([1]; 1 μM): 0.10
Arg mRNA expression relative to control ([1]; 2 μM): 0.14
Mgl mRNA expression relative to control ([1]; 2 μM): 0.40
Mmr mRNA expression relative to control ([1]; 2 μM): 0.14
Ym1 mRNA expression relative to control ([1]; 2 μM): 0.11
Arg mRNA expression relative to control ([1]; 5 μM): 0.22
Fizz1 mRNA expression relative to control ([1]; 5 μM): 0.06
Mgl mRNA expression relative to control ([1]; 5 μM): 0.24
Mmr mRNA expression relative to control ([1]; 5 μM): 0.18
Ym1 mRNA expression relative to control ([1]; 5 μM): 0.04
immunosuppressive macrophage M2 gene expression ([1]; BMDMs, IL4 24 hours, 1 μM): blocks immunosuppressive M2 gene expression
Il1 mRNA expression relative to control ([2]; 200 nM): 1.1
Il6 mRNA expression relative to control ([2]; 200 nM): 1.7
Tnfa mRNA expression relative to control ([2]; 200 nM): 0.88
Il1 mRNA expression relative to control ([2]; 500 nM): 1.1
Il6 mRNA expression relative to control ([2]; 500 nM): 1.29
Tnfa mRNA expression relative to control ([2]; 500 nM): 1.23
Il1 mRNA expression relative to control ([2]; 1 μM): 1.2
Il6 mRNA expression relative to control ([2]; 1 μM): 3.15
Tnfa mRNA expression relative to control ([2]; 1 μM): 1.70
Il1 mRNA expression relative to control ([2]; 2 μM): 1.25
Il6 mRNA expression relative to control ([2]; 2 μM): 1.59
Tnfa mRNA expression relative to control ([2]; 2 μM): 1.99
Il1 mRNA expression relative to control ([2]; 5 μM): 0.69
Il6 mRNA expression relative to control ([2]; 5 μM): 0.97
Tnfa mRNA expression relative to control ([2]; 5 μM): 0.90
M1 inflammatory gene expression ([2]; BMDMs, LPS 24 hours, 1 μM): augments M1 inflammatory gene expression
Mgl mRNA expression relative to control ([3]; 200 nM): 0.31
Fizz1 mRNA expression relative to control ([3]; 2 μM): 0.22
